For data set [1], the target named is BauB (Acinetobacter baumannii, UniProt Q76HK0). As to the kind of experiment: BauB binding by intrinsic Trp fluorescence quenching.
The conditions of data set [2]: Fe binding in CAS assay; reported previously; cited from earlier work.

The text below walks through data of publication PMC6474793 (Biochemistry, 2018).

The molecule `C[C@@H]1ON(CCc2c[nH]cn2)C(=O)[C@H]1NC(=O)c1cccc(O)c1O` [compound 1, acinetobactin] registered a Kd in data set [1] of 300 ± 100 nM. Besides, in data set [2], the “CAS (+/-)” value is given as “+”.

In general, Kd refers to a measure of binding affinity in units of concentration.
